Assay results reported in US4237068A, “Primary aminoacylanilides” (priority 1978, dated 1980).
Read-outs that look alike come from different tables or passages of the source.

Experiments:
[1] = Antifibrillatory effect in mice: protection against chloroform-induced ventricular fibrillation, oral (Table I); type: in vivo, female Swiss albino mice (HAM/ICR)
Description: (§1) The experiments on mice were performed according to a modification of the method described by J. W. Lawson, "Antiarrhythmic activity of some isoquinoline derivatives determined by a rapid screening procedure in the mouse," J. Pharm. Exp. Therap. Vol. 160, pp. 22-31 (1968). This method is based upon the observation that when an unanesthetized, untreated mouse is exposed to chloroform vapor its respiration soon ceases and at that time both electrocardiographic and visual inspection reveal that the cardiac ventricles are fibrillating. If the mouse is treated appropriately with known antiarrhythmic agents prior to exposure to chloroform, the respiratory failure is not accompanied by ventricular fibrillation.

mice = test: Ataxia in mice just before CHCl3 challenge, oral (Table I); type: in vivo; details: LD0.1 dose
Source text: Immediately after cessation of respiration each mouse was removed from the beaker, its thorax was opened and its heart was examined for the presence of absence of ventricular fibrillation. The nature of the cardiac rhythm was then confirmed by electrocardiographic recordings. Whenever fibrillation was not evident, the heart was touched with forceps. The heart was considered as fibrillating if fine tremulous movements were present on the surface of the ventricle and persisted for at least 5 seconds after the thoracotomy or the mechanical stimulus. Ventricular fibrillation was considered absent in those animals in which coordinated ventricular activity was evident following such procedures.

[2] = type: in vivo, dogs; details: for Overt toxicity: convulsions, onset / Overt toxicity: emesis / Overt toxicity: nystagmus / Overt toxicity: other / Overt toxicity: tremors / Overt toxicity: convulsions, duration: po
Source text: (§2) Vol. 1, pp. 1318-1328 (1950). […] The electrocardiographic, cardiovascular and other drug effects were monitored.

[3] = Response of unanesthetized dogs to intravenous infusion on first day after coronary artery ligation (Table III)
Description: In this method the dogs were anesthetized, the heart was exposed, and the anterior descending branch of the left coronary artery was ligated in two stages. The thorax was closed and the dog was allowed to recover from the anesthesia. […] The electrocardiographic, cardiovascular and other drug effects were monitored.
The dosage schedule was: 1st hr.: 15 mg/kg/hr; 2nd hr.: 30 mg/kg/hr; 3rd hr.: 60 mg/kg/hr. Infusions were stopped at the first sign of toxicity other than emesis.

[4] = Relative potency against chloroform induced fibrillation in mice, subcutaneous (Table IV); type: in vivo; details: 20 min, statistical mean (confidence limits)
Description: as §1
The procedure used was a modification of the method previously described. The modification involved using a standard time of 20 minutes for each test run and four different doses of the same drug. Route of administration was subcutaneous.

frog sciatic nerve = test: In vitro local anesthetic effect on frog sciatic nerve; details: 20 mM solution, after exposure for 96 min
[5] = Expected antiarrhythmic oral dosage in humans; type: in vivo
[6] = mouse, in vivo
[7] = Ventricular arrhythmias in unanesthetized dogs after coronary artery ligation (modified Harris method), 3-amino-2',6'-butyroxylidide (Table VI); type: in vivo
Source text: as §2
The electrocardiographic, cardiovascular and other drug effects were monitored.

[8] = cited from earlier work
[9] = oral and intravenous doses, unanesthetized dogs
[10] = i.v. infusion, cumulative, one value per dog
[11] = intravenous, first day after ligation

With `Cc1cccc(C)c1NC(=O)C(C)N` (racemic) [2-amino-2',6'-propionoxylidide] the “Proportion of mice in each group protected against fibrillation at LD0.1” value (“Proportion of mice … at LD0.1” for short) ([1]; 20 min before CHCl3 challenge) was 9/10, the “Proportion of mice … at LD0.1” value ([1]; 40 min before CHCl3 challenge) was 9/10 and the “Proportion of mice … at LD0.1” value ([1]; 80 min before CHCl3 challenge) was 10/10. For the same compound, the “Proportion of mice … at LD0.1” value ([1]; 160 min before CHCl3 challenge) was 9/10, the “Proportion of mice in each group having ataxia just before CHCl3 challenge” value (mice; 20 min) was 10/10 and the “Proportion of mice in each group having ataxia just before CHCl3 challenge” value (mice; 40 min) was 10/10. The “Proportion of mice in each group having ataxia just before CHCl3 challenge” value (mice; 80 min) was 8/10, the “Proportion of mice in each group having ataxia just before CHCl3 challenge” value (mice; 160 min) was 5/10 and the adverse reactions ([2]; dog, in vivo) was “unaccompanied by any discernible adverse reactions”. For the same compound, the “Overt toxicity: convulsions, onset” value ([2]; dog, in vivo, 50 mg/kg) was “None”, the “Overt toxicity: emesis” value ([2]; dog, in vivo, 50 mg/kg) was “None” and the “Overt toxicity: nystagmus” value ([2]; dog, in vivo, 50 mg/kg) was “None”. The “Overt toxicity: other” value ([2]; dog, in vivo, 50 mg/kg) was “None”, the “Overt toxicity: tremors” value ([2]; dog, in vivo, 50 mg/kg) was “None” and the “Overt toxicity: convulsions, onset” value ([2]; dog, in vivo, 100 mg/kg) was “None”. For the same compound, the “Overt toxicity: emesis” value ([2]; dog, in vivo, 100 mg/kg) was “None”, the “Overt toxicity: nystagmus” value ([2]; dog, in vivo, 100 mg/kg) was “None” and the “Overt toxicity: other” value ([2]; dog, in vivo, 100 mg/kg) was “None”. The “Overt toxicity: tremors” value ([2]; dog, in vivo, 100 mg/kg) was “None”, the “Overt toxicity: convulsions, onset” value ([2]; dog, in vivo, 150 mg/kg) was “None” and the “Overt toxicity: nystagmus” value ([2]; dog, in vivo, 150 mg/kg) was “None”. The “Overt toxicity: other” value ([2]; dog, in vivo, 150 mg/kg) was “None”, the “Overt toxicity: tremors” value ([2]; dog, in vivo, 150 mg/kg) was “None” and the “Overt toxicity: convulsions, duration” value ([2]; dog, in vivo, 200 mg/kg) was > 3 min. The “Overt toxicity: nystagmus” value ([2]; dog, in vivo, 200 mg/kg) was “None”, the “Overt toxicity: other” value ([2]; dog, in vivo, 200 mg/kg) was “None” and the “Overt toxicity: convulsions, duration” value ([2]; dog, in vivo, 300 mg/kg) was 17 min. For the same compound, the “Overt toxicity: convulsions, onset” value ([2]; dog, in vivo, 300 mg/kg) was “None”, the “Overt toxicity: emesis” value ([2]; dog, in vivo, 300 mg/kg) was “None” and the “Overt toxicity: nystagmus” value ([2]; dog, in vivo, 300 mg/kg) was “None”. The “Overt toxicity: other” value ([2]; dog, in vivo, 300 mg/kg) was “None”, the “Overt toxicity: tremors” value ([2]; dog, in vivo, 300 mg/kg) was “None” and the “suppression of the ventricular arrhythmias” value [2, 9] was “distinct suppression of the ventricular arrhythmias”. The “Maximum antiarrhythmic activity, partial clearing, onset” value ([2]; oral, cumul. dose 50 mg/kg as HCl, 50-95% reduction of abnormal ventricular beats) was “None”, the “Toxic doses (cumul.)” value [3, 10] was 81 mg/kg and the “Relative potency (ED50 test compound/ED50 lidocaine)” value [4] was 0.33 (0.20-0.54). The “block of the action potential of the nerve” value (frog sciatic nerve) was “does not block the action potential at all”, the “dosage that should be effective for humans” value [5] was “about 6 grams/day” and the convulsions incidence ([6]; 251 mg/kg) was 34%.
In the case of `Cc1cccc(C)c1NC(=O)CC(C)N` (centres unmarked) [3-amino-2',6'-butyroxylidide], the “Relative potency (ED50 test compound/ED50 lidocaine)” value [4] is reported as 0.99 (0.60-1.9), the adverse reactions ([7]; dog, in vivo) is reported as “unaccompanied by any discernible adverse reactions” and the “Toxicity: convulsions” value [7, 11] is reported as “None”. The “Toxicity: deaths” value [7, 11] was “None” and the “suppression of the ventricular arrhythmias” value [7, 9] was “distinct suppression of the ventricular arrhythmias”.
For `CCN(CC)CCNC(=O)c1ccc(N)cc1` [PROCAINAMIDE], the “Proportion of mice … at LD0.1” value ([1]; 5 min before CHCl3 challenge) was 0/10, the “Proportion of mice … at LD0.1” value ([1]; 10 min before CHCl3 challenge) was 1/10 and the “Proportion of mice … at LD0.1” value ([1]; 20 min before CHCl3 challenge) was 0/10. For the same compound, the “Proportion of mice in each group having ataxia just before CHCl3 challenge” value (mice; 5 min) was 0/10, the “Proportion of mice in each group having ataxia just before CHCl3 challenge” value (mice; 10 min) was 0/10 and the “Proportion of mice in each group having ataxia just before CHCl3 challenge” value (mice; 20 min) was 0/10.
With `C=C[C@H]1C[N@@]2CC[C@H]1C[C@@H]2[C@@H](O)c1ccnc2ccc(OC)cc12` [QUINIDINE] the “Proportion of mice … at LD0.1” value ([1]; 20 min before CHCl3 challenge) was 10/10, the “Proportion of mice … at LD0.1” value ([1]; 40 min before CHCl3 challenge) was 9/9 and the “Proportion of mice … at LD0.1” value ([1]; 80 min before CHCl3 challenge) was 9/9. The “Proportion of mice in each group having ataxia just before CHCl3 challenge” value (mice; 20 min) was 0/10, the “Proportion of mice in each group having ataxia just before CHCl3 challenge” value (mice; 40 min) was 2/10 and the death (mice; 40 min group) was 1 death. For the same compound, the death (mice; 80 min group) was 1 death.
In the case of `CCN(CC)CC(=O)Nc1c(C)cccc1C` [lidocaine, 2-diethylamino-2',6'-acetoxylidide], the “Proportion of mice … at LD0.1” value ([1]; 10 min before CHCl3 challenge) is reported as 9/10, the “Proportion of mice … at LD0.1” value ([1]; 20 min before CHCl3 challenge) is reported as 10/10 and the “Proportion of mice … at LD0.1” value ([1]; 40 min before CHCl3 challenge) is reported as 7/10. The “Proportion of mice … at LD0.1” value ([1]; 80 min before CHCl3 challenge) was 0/10, the “Proportion of mice in each group having ataxia just before CHCl3 challenge” value (mice; 10 min) was 0/10 and the “Proportion of mice in each group having ataxia just before CHCl3 challenge” value (mice; 20 min) was 9/10. For the same compound, the “Proportion of mice in each group having ataxia just before CHCl3 challenge” value (mice; 40 min) was 0/10, the “Proportion of mice in each group having ataxia just before CHCl3 challenge” value (mice; 80 min) was 0/10 and the minimal effective dose ([3]; Canis lupus familiaris, iv, read-out: Antiarrhythmic doses (cumul.), i.v. infusion, cumulative, one value per dog) was 36 mg/kg. For the same compound, the “Antiarrhythmic doses (cumul.)” value [3, 10] was 55 mg/kg, the “Number of dogs showing antiarrhythmic effect” value ([3]; i.v. infusion, dogs tested: lidocaine 2, 2-amino-2',6'-propionoxylidide 1, abnormal beats < 5% of total) was 2 and the “Duration of antiarrhythmic effect” value ([3]; i.v. infusion, return of 50% of suppressed abnormal ventricular beats, one value per dog) was 5 min. The “duration of blood levels” value ([8]; lidocaine) was “fairly short”, the oral effectiveness ([8]; oral, due to low levels of the drug in the blood) was “not orally effective” and the “loss of the drug after oral administration” value ([8]; oral, probably due to the functions of the liver) was “pronounced loss of the drug”.
`CCNC(C)C(=O)Nc1c(C)cc(C)cc1C` (centres unmarked) [secondary amine] gave an ataxia incidence [6] of 100% and a convulsions incidence [6] of 90%.
